Source: US12173088B2, “Anti-microbial peptides” (priority 2018, dated 2024)
Converted amounts (≈) assume the structure as drawn. Like-named read-outs stand apart in the source and are kept apart here. Peptide text beside a SMILES is read from it.

Assays:
[1] = Hemolytic assay; type: cell-based, human; conditions: human, human red blood cells, 2% (v/v)
Outline: (§1)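 Washed hRBCs (2% v/v) exposed to peptide for 1 h at 37 °C, then centrifuged and hemoglobin in supernatant read at 545 nm. Lysis normalized to Triton X-100 (2% or 1%; 100%) and PBS (0%); HL50 is the peptide concentration giving 50% lysis, and CSI is HL50/MIC.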

[2] = tested on: K. pneumoniae E406-17; experiment: microbe, parasite or virus in culture; type: cell-based, Klebsiella pneumoniae; conditions: for MIC K. pneumonia 406-17: E406-17; for MIC: Table 14, read-out: MIC K. pneumoniae E406-17
Protocol: (§2) The antibacterial activity of peptides was evaluated using a standard broth microdilution protocol with minor modifications as described (Mishra, et al. (2012) J. Am. Chem. Soc., 134:12426-12429). In brief, logarithmic phase bacterial cultures (i.e., optical density at 600 nm≈0.5) were diluted to OD600 0.001 and partitioned into a 96-well polystyrene microplate at 90 μL per well. After treatment with 10 μL of peptide solutions two fold diluted to various concentrations, microplates were incubated at 37° C. overnight and read on a ChroMate® 4300 Microplate Reader at 630 nm (GMI, Ramsey, MN). […] To study the influence of medium conditions on the antimicrobial activity of peptides against S. aureus USA300, up to 200 mM sodium chloride (NaCl), 2 mM of calcium chloride, 5-10% of human serum, mouse plasma, fluid, or supernatants of tissue homogenates were included into the assays.
(§3) The bacterial strains used include the Gram-positive bacteria methicillin-resistant Staphylococcus aureus USA300, Enterococcus faecium V286-17 (VRE), S. aureus M838-17 (MRSA) and Gram-negative bacteria E. coli E423-17, E416-7 (ampC), P. aeruginosa E411-17, PA01, K. pneumoniae E406-17, ATCC13883, and A. baumannii B26-16. Bacteria were cultivated in tryptic soy broth (TSB) from BD Bioscience.
(§4) The antibacterial activity of peptides was evaluated using a standard broth microdilution protocol with minor modifications (Mishra, et al. (2017) Acta Biomater., 49:316-328). In brief, logarithmic phase bacterial cultures (i.e., optical density at 600 nm≈0.5) were diluted to 0.001 OD and aliquoted 90 μL per well into a 96-well polystyrene microplate. Added 10 μL peptides per well with various concentrations, plates were incubated at 37° C., overnight. Post incubation the plates are read at 630 nm using a ChroMate® Microplate Reader (GMI). […] To study the influence of medium conditions on the antimicrobial activity of peptides against S. aureus USA300 at different pHs (6.8, 7.2, and 8.0), 150 mM sodium chloride (NaCl), 5-10% of human serum, mouse plasma, and peritoneal fluid were included into the assays.

[3] = tested on: P. aeruginosa E411-17; experiment: microbe, parasite or virus in culture; type: cell-based, Pseudomonas aeruginosa; conditions: for MIC P. aeruginosa 411-17: E411-17; for MIC: Table 14, read-out: MIC P. aeruginosa E411-17
From the text: (§5) The bacterial strains used include the Gram-positive strains Staphylococcus aureus USA300 LAC, S. epidermidis 1457, and Bacillus subtilis 168, as well as the Gram-negative isolates Escherichia coli K12 and Acinetobacter baumannii B2367-12. Additional, drug resistance strains include Gram-positive Enterococcus faecium V286-17 (VRE) and S. aureus M838-17 (MRSA) and Gram-negative E. coli E423-17, E. coli E416-17 (ampC), and P. aeruginosa E411-17. Bacteria were cultivated in tryptic soy broth (TSB) (BD Bioscience, MD).
as §2, §3, §4

[4] = tested on: S. aureus M838-17 (MRSA); experiment: microbe, parasite or virus in culture; type: cell-based, Staphylococcus aureus; conditions: M838-17
Outline: (§6)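 Broth microdilution: log-phase cultures in tryptic soy broth diluted to OD600 0.001, exposed to two-fold diluted peptides at 37° C overnight, growth read at 630 nm. Medium effects on S. aureus USA300 tested with up to 200 mM NaCl, 2 mM CaCl2, 5-10% human serum, mouse plasma, fluids or tissue homogenate supernatants.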

[5] = tested on: A. baumannii B26-16; experiment: microbe, parasite or virus in culture; type: cell-based, Acinetobacter baumannii; conditions: Table 14, read-out: MIC A. baumannii B26-16
Protocol: as §3, §4

[6] = tested on: Klebsiella pneumoniae clinical strains; experiment: microbe, parasite or virus in culture; conditions: Klebsiella pneumoniae
Protocol: as §4

[7] = tested on: S. aureus USA300; experiment: microbe, parasite or virus in culture; type: cell-based, Staphylococcus aureus; conditions: for MIC S. aureus USA 300: quantified by UV
Outline: as §6

[8] = tested on: E. faecium V286-17 (VRE); experiment: microbe, parasite or virus in culture; type: cell-based, Enterococcus faecium; conditions: Table 14, read-out: MIC E. faecium V286-17 (VRE)
From the text: as §5, §2, §3, §4

[9] = tested on: E. coli E423-17; experiment: microbe, parasite or virus in culture; type: cell-based, Escherichia coli; conditions: Table 14, read-out: MIC E. coli E423-17
From the text: as §5, §2, §3, §4

[10] = tested on: human red blood cells (hRBCs); experiment: Hemolytic assay; type: cell-based
Outline: as §1

[11] = tested on: K. pneumoniae ATCC 13883; type: cell-based, Klebsiella pneumoniae; conditions: quantified by UV
Outline: (§7)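 Broth microdilution in tryptic soy broth: log-phase cultures (OD600 ≈0.5) diluted to OD600 0.001, given two-fold peptide dilutions, incubated overnight at 37° C. Growth read at 630 nm.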

[12] = tested on: P. aeruginosa PAO1; type: cell-based, Pseudomonas aeruginosa
Outline: as §7

[13] = tested on: E. coli ATCC 25922; type: cell-based, Escherichia coli
Outline: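 Broth microdilution: log-phase E. coli diluted to OD600 0.001 and exposed to two-fold serial peptide dilutions overnight at 37 °C. Growth read at 630 nm.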

[14] = Table 4, quantitated based on weight

CC(C)C[C@H](NC(=O)[C@H](Cc1c[nH]c2ccccc12)NC(=O)[C@H](Cc1c[nH]c2ccccc12)NC(=O)[C@H](Cc1c[nH]c2ccccc12)NC(=O)[C@H](CCCNC(=N)N)NC(=O)[C@H](CCCNC(=N)N)NC(=O)[C@H](CCCNC(=N)N)NC(=O)[C@@H](N)CCCNC(=N)N)C(N)=O [WW309, RRRRWWWL] (H-RRRRWWWL-NH2; N-terminus and C-terminus assumed)
HC50 at 1 h [1]: > 200 µM | MIC K. pneumonia 406-17 [2]: >50 µM | MIC P. aeruginosa 411-17 [3]: 12.5 µM (≈ 16.4 µg/mL) | MIC S. aureus M838-17 [4]: 6.25 µM (≈ 8.21 µg/mL)

NC[C@H]1O[C@H](O[C@H]2[C@H](O)[C@@H](O[C@H]3O[C@H](CO)[C@@H](O)[C@H](N)[C@H]3O)[C@H](N)C[C@@H]2N)[C@H](N)C[C@@H]1O [Tobramycin, reference compound]
MIC ([5]; Acinetobacter baumannii, B2616): 4 µM (≈ 1.87 µg/mL) | MIC ([6]; strain KP-231-18): 64 µM (≈ 29.9 µg/mL) | MIC ([6]; strain KP-232-18): > 64 µM | MIC ([6]; strain KP-245-18): 4 to 8 µM (≈ 1.87 to 3.74 µg/mL) | MIC ([6]; strain KP-249-18): 8 µM (≈ 3.74 µg/mL) | MIC ([6]; strain KP-253-18): 8 µM (≈ 3.74 µg/mL) | MIC ([6]; strain KP-256-18): > 64 µM | MIC ([6]; strain KP-257-18): > 64 µM | MIC ([6]; strain KP-262-18): 4 µM (≈ 1.87 µg/mL) | MIC ([6]; strain KP-270-18): 16 µM (≈ 7.48 µg/mL) | MIC ([6]; strain KP-B42-15): 8 µM (≈ 3.74 µg/mL) | MIC ([6]; strain KP-B53-15): 4 µM (≈ 1.87 µg/mL) | MIC ([6]; strain KP-B73-15): 4 µM (≈ 1.87 µg/mL) | MIC ([6]; strain KP-B77-15): 4 µM (≈ 1.87 µg/mL) | MIC ([6]; strain KP-B1725-18): 8 µM (≈ 3.74 µg/mL) | MIC ([2]; Klebsiella pneumoniae, E40617): > 8 µM | MIC ([3]; Pseudomonas aeruginosa, E41117): 2 µM (≈ 0.935 µg/mL) | MIC ([7]; Staphylococcus aureus, MRSA / USA300, Table 14, read-out: MIC S. aureus USA300 (MRSA)): 4 µM (≈ 1.87 µg/mL) | MIC ([8]; Enterococcus faecium, VRE): > 8 µM | MIC ([9]; Escherichia coli, E42317): 8 µM (≈ 3.74 µg/mL)

Colistin [reference compound]
MIC [5]: 1 µM | MIC [2]: >8 µM | MIC [3]: 2 µM | MIC ([7]; Table 14, read-out: MIC S. aureus USA300 (MRSA)): >8 µM | MIC [8]: >8 µM | MIC [9]: 1 µM

CC(C)C[C@H](NC(=O)[C@H](CC(C)C)NC(=O)[C@H](CCCCN)NC(=O)CNC(=O)[C@H](CC(C)C)NC(=O)[C@H](CC(C)C)NC(=O)[C@H](CO)NC(=O)[C@H](CC(C)C)NC(=O)[C@H](CC(C)C)NC(=O)[C@H](CO)NC(=O)[C@H](CC(C)C)NC(=O)[C@H](CC(C)C)NC(=O)CN)C(N)=O [DFTamP1, GLLSLLSLLGKLL] (H-GLLSLLSLLGKLL-NH2; N-terminus assumed)
HL50 ([10]; Table 2, lysis of 50% hRBCs (2% v/v)): <3.1 µM | HL50 ([10]; Table 3, hRBCs 2% v/v): <3.1 µM | HC50 at 1 h ([1]; Table 4, quantitated based on weight, read-out: HL50, peptide concentration for 50% hemolysis): 10 µM | MIC K. pneumoniae ([11]; Table 2): >25 µM | MIC K. pneumonia ATCC 13883 ([11]; Table 3): >25 µM | MIC P. aeruginosa PAO1 ([12]; Table 2, quantified by UV): >25 µM | MIC PA (P. aeruginosa PAO1) [12, 14]: >25 µM | MIC E. coli ATCC 25922 ([13]; Table 2, quantified by UV): >25 µM | MIC EC (E. coli ATCC 25922) [13, 14]: >25 µM | MIC ([7]; 1 mM Ca2+): 0.78 µM (≈ 1.04 µg/mL) | MIC ([7]; 2 mM Ca2+): 0.78 to 1.56 µM | MIC ([7]; 50 mM NaCl): 0.78 µM (≈ 1.04 µg/mL) | MIC ([7]; 100 mM NaCl): 0.78 µM (≈ 1.04 µg/mL) | MIC ([7]; 200 mM NaCl): 0.78 µM (≈ 1.04 µg/mL) | MIC ([7]; Human serum (5%), Table 5): 12.5 µM (≈ 16.7 µg/mL) | MIC ([7]; Murine plasma (5%), Table 5): 6.2^ 2 μM | MIC ([7]; NaCl (150 mM), Table 5): 3.1 to 6.2 µM | MIC ([7]; No salts added, Table 6, by UV): 0.78 µM | MIC S. aureus USA 300 ([7]; Table 2, peptides amidated): 0.78 µM (≈ 1.04 µg/mL) | MIC S. aureus USA 300 ([7]; Table 3): 0.78 µM (≈ 1.04 µg/mL) | MIC SA (S. aureus USA300) [7, 14]: 3.1 µM (≈ 4.15 µg/mL) | MIC ([7]; pH 6.8, Table 5, by weight): 6.2 µM (≈ 8.3 µg/mL) | MIC ([7]; pH 7.4, Table 5): 3.1 µM (≈ 4.15 µg/mL) | MIC ([7]; pH 8.0, Table 5): 3.1 µM (≈ 4.15 µg/mL)

C[C@H](NC(=O)[C@H](Cc1c[nH]c2ccccc12)NC(=O)[C@H](Cc1c[nH]c2ccccc12)NC(=O)[C@H](Cc1c[nH]c2ccccc12)NC(=O)[C@H](Cc1c[nH]c2ccccc12)NC(=O)[C@H](CCCNC(=N)N)NC(=O)[C@H](CCCNC(=N)N)NC(=O)[C@@H](N)CCCNC(=N)N)C(N)=O [WW308, RRRWWWWA] (H-RRRWWWWA-NH2; N-terminus and C-terminus assumed)
HC50 at 1 h [1]: > 200 µM | MIC K. pneumonia 406-17 [2]: >50 µM | MIC P. aeruginosa 411-17 [3]: 25 µM (≈ 32.5 µg/mL) | MIC S. aureus M838-17 [4]: 12.5 µM (≈ 16.3 µg/mL)

CC(C)C[C@H](NC(=O)[C@H](Cc1c[nH]c2ccccc12)NC(=O)[C@H](Cc1c[nH]c2ccccc12)NC(=O)[C@H](Cc1c[nH]c2ccccc12)NC(=O)[C@H](Cc1c[nH]c2ccccc12)NC(=O)[C@H](CCCNC(=N)N)NC(=O)[C@H](CCCNC(=N)N)NC(=O)[C@@H](N)CCCNC(=N)N)C(N)=O [WW306, RRRWWWWL] (H-RRRWWWWL-NH2; N-terminus and C-terminus assumed)
HC50 at 1 h [1]: 60 µM | MIC K. pneumonia 406-17 [2]: 6.25 µM (≈ 8.4 µg/mL) | MIC P. aeruginosa 411-17 [3]: 6.25 µM (≈ 8.4 µg/mL) | MIC S. aureus M838-17 [4]: 3.1 µM (≈ 4.17 µg/mL)
